For data set [1] the following is noted: cited from earlier work; for clearance in humans: Zientek et al. 2010.
Data set [2] deals with T1, aldehyde oxidase (AO) (Homo sapiens (Human), UniProt Q06278). Conditions: reference compounds of the human liver cytosolic system; cited from earlier work.
The next data set has as its target DNA-PK (Homo sapiens (Human), UniProt P78527). The data set can be described thus: DNA-PK biochemical assay (Assay e). As to the method: Assay e): DNA-PK Biochemical Assay
The final concentration: Substrate 0.2 ug/ml and ATP 20 uM. […] The plate was equilibrated for 2 hr at room temperature.

A further data set addresses ATM (Homo sapiens (Human), UniProt Q13315). Kind of data set: biochemical. The format is biochemical. Conditions: read-out: ATM IC50. The source says: Assay a): ATM Biochemical Potency
Data was collected by Caliper.

In another data set the target is ATR (Homo sapiens (Human), UniProt Q13535). Kind of data set: ATR biochemical potency assay (Assay b). As to the method: Assay b): ATR Biochemical Potency
The plate was incubated at room temperature for 10 minutes. 2× peptide solutions were prepared with FAM-labeled peptide and ATP in the 1× kinase base buffer. […] 40 μl of stop buffer was added to stop reaction. Data were collected by Caliper.

A further data set has as its target PIK3Cδ (Homo sapiens (Human), UniProt O00329). The data set can be described thus: PI3K biochemical potency assay (Assay c), PIK3Cδ. Conditions: read-out: PI3Kδ IC50.
Another data set concerns the target PIK3Cγ (pp110γ) (Homo sapiens (Human), UniProt P48736). The data set can be described thus: PI3K biochemical potency assay (Assay c), PIK3Cγ. Conditions: read-out: PI3Kγ IC50.
In a further data set the target is PIK3Cβ (p110β) (Homo sapiens (Human), UniProt P42338). Kind of data set: PI3K biochemical potency assay (Assay c), PIK3Cβ. Conditions: read-out: PI3Kβ IC50.
The next data set concerns the target mTOR (Homo sapiens (Human), UniProt P42345). Kind of data set: mTOR biochemical potency assay (Assay d). Conditions: read-out: mTor IC50.
Data set [3] has as its target ATM (phospho-ATM Ser1981) in SN38 treated HT-29 cells (Homo sapiens (Human), UniProt Q13315). Kind of data set: cell-based. Conditions: HT-29 cells, SN-38; read-out: SN-38 HT-29 cellular IC50. As to the method:
Assay g): ATM SN-38 HT-29 Cellular Potency
SN38 causes single strand DNA breaks (SSBs) which are converted to double strand breaks (DSBs) during replication. ATM plays role of repairing DSBs. Inhibition of ATM was evaluated in SN38 treated HT-29 cells (ATCC, Cat #HTB-38) by high-Content Imaging System
The graphical views were then generated using Prism 7.0 (Graphpad).

In a further data set the target is PI3Kα (p110α/p85a) (Homo sapiens (Human), UniProt P42336). The data set can be described thus: PI3K biochemical potency assay (Assay c), PI3Kα. Conditions: read-out: PI3Kα IC50.
Sequence of PI3Kα (p110α/p85a) (P42336 whole entry, looked up): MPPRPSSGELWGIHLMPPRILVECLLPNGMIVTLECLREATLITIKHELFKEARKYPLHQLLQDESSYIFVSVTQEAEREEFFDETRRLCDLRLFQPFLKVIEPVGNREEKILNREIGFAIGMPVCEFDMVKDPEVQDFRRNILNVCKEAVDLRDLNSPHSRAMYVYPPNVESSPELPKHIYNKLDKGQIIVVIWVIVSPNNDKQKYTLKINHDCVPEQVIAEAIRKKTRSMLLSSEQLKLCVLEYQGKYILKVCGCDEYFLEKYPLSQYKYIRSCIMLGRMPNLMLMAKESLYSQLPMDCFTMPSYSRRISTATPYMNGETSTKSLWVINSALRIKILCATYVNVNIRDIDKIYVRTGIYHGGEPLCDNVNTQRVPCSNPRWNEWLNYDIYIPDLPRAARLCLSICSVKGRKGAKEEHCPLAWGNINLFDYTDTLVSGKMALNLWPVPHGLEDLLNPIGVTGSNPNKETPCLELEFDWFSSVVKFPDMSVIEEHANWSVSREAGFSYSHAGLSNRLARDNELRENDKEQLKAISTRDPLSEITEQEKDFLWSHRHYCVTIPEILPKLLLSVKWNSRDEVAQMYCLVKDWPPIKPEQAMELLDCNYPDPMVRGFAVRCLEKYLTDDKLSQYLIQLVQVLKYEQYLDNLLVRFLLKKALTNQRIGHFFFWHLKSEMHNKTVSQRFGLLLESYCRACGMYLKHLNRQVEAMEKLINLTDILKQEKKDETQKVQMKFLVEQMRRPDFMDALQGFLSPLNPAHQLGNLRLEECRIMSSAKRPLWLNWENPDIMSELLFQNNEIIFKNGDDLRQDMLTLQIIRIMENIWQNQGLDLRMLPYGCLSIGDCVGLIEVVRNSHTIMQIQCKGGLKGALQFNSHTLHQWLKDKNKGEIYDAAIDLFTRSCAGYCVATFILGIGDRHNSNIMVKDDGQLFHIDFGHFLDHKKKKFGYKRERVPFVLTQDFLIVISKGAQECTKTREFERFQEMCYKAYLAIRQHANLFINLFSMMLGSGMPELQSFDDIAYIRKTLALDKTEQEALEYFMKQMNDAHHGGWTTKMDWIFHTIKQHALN
Sequence of PI3Kα (p110α/p85a) (P27986 whole entry partner, looked up): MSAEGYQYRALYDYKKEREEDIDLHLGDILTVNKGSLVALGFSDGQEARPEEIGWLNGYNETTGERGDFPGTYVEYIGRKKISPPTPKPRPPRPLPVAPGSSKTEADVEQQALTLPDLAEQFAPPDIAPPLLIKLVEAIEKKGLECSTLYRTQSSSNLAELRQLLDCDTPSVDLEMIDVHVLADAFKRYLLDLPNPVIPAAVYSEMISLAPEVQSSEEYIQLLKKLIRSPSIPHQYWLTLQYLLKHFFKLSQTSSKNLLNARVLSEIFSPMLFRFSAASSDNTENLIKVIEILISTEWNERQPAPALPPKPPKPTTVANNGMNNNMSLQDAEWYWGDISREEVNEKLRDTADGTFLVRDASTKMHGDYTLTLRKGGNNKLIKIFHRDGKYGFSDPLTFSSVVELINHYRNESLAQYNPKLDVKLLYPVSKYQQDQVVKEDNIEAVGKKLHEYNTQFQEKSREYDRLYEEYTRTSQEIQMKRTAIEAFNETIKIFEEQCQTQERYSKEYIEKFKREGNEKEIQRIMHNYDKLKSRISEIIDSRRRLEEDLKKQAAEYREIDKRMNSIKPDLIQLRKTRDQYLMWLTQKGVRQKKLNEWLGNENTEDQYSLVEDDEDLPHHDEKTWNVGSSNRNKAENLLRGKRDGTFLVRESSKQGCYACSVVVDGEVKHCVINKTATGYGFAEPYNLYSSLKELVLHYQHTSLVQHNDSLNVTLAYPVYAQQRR
Data set [4] has as its target T1, aldehyde oxidase (AO). The data set can be described thus: in vitro. As to the method:
All calculations were carried out using Microsoft Excel. Peak areas were determined from extracted ion chromatograms. The slope value, k, was determined by linear regression of the natural logarithm of the remaining percentage of the parent drug vs. incubation time curve.

The test system of data set [5] is phosp-KAP1 in MCF-7 cells. Kind of data set: phosp-KAP1 MCF-7 cellular potency assay (Assay f). The format is cell-based. Conditions: Homo sapiens, MCF7; MCF-7 cells, etoposide; read-out: Etoposide MCF-7 cellular IC50.

We go through eight compounds from patent US20240207263A1, “SELECTIVE MODULATORS OF ATAXIA TELA[…] (ATM) KINASE AND USES THEREOF” (priority 2021, published 2024).

As usually defined, the IC50 is the concentration needed to halve the response being measured. One may read the microsomal CLint as a measure of how fast metabolising enzymes remove a compound, apart from limits set by blood flow. High values mean rapid turnover, low ones slow turnover.

Sequence of ATM (Q13315 whole entry, looked up): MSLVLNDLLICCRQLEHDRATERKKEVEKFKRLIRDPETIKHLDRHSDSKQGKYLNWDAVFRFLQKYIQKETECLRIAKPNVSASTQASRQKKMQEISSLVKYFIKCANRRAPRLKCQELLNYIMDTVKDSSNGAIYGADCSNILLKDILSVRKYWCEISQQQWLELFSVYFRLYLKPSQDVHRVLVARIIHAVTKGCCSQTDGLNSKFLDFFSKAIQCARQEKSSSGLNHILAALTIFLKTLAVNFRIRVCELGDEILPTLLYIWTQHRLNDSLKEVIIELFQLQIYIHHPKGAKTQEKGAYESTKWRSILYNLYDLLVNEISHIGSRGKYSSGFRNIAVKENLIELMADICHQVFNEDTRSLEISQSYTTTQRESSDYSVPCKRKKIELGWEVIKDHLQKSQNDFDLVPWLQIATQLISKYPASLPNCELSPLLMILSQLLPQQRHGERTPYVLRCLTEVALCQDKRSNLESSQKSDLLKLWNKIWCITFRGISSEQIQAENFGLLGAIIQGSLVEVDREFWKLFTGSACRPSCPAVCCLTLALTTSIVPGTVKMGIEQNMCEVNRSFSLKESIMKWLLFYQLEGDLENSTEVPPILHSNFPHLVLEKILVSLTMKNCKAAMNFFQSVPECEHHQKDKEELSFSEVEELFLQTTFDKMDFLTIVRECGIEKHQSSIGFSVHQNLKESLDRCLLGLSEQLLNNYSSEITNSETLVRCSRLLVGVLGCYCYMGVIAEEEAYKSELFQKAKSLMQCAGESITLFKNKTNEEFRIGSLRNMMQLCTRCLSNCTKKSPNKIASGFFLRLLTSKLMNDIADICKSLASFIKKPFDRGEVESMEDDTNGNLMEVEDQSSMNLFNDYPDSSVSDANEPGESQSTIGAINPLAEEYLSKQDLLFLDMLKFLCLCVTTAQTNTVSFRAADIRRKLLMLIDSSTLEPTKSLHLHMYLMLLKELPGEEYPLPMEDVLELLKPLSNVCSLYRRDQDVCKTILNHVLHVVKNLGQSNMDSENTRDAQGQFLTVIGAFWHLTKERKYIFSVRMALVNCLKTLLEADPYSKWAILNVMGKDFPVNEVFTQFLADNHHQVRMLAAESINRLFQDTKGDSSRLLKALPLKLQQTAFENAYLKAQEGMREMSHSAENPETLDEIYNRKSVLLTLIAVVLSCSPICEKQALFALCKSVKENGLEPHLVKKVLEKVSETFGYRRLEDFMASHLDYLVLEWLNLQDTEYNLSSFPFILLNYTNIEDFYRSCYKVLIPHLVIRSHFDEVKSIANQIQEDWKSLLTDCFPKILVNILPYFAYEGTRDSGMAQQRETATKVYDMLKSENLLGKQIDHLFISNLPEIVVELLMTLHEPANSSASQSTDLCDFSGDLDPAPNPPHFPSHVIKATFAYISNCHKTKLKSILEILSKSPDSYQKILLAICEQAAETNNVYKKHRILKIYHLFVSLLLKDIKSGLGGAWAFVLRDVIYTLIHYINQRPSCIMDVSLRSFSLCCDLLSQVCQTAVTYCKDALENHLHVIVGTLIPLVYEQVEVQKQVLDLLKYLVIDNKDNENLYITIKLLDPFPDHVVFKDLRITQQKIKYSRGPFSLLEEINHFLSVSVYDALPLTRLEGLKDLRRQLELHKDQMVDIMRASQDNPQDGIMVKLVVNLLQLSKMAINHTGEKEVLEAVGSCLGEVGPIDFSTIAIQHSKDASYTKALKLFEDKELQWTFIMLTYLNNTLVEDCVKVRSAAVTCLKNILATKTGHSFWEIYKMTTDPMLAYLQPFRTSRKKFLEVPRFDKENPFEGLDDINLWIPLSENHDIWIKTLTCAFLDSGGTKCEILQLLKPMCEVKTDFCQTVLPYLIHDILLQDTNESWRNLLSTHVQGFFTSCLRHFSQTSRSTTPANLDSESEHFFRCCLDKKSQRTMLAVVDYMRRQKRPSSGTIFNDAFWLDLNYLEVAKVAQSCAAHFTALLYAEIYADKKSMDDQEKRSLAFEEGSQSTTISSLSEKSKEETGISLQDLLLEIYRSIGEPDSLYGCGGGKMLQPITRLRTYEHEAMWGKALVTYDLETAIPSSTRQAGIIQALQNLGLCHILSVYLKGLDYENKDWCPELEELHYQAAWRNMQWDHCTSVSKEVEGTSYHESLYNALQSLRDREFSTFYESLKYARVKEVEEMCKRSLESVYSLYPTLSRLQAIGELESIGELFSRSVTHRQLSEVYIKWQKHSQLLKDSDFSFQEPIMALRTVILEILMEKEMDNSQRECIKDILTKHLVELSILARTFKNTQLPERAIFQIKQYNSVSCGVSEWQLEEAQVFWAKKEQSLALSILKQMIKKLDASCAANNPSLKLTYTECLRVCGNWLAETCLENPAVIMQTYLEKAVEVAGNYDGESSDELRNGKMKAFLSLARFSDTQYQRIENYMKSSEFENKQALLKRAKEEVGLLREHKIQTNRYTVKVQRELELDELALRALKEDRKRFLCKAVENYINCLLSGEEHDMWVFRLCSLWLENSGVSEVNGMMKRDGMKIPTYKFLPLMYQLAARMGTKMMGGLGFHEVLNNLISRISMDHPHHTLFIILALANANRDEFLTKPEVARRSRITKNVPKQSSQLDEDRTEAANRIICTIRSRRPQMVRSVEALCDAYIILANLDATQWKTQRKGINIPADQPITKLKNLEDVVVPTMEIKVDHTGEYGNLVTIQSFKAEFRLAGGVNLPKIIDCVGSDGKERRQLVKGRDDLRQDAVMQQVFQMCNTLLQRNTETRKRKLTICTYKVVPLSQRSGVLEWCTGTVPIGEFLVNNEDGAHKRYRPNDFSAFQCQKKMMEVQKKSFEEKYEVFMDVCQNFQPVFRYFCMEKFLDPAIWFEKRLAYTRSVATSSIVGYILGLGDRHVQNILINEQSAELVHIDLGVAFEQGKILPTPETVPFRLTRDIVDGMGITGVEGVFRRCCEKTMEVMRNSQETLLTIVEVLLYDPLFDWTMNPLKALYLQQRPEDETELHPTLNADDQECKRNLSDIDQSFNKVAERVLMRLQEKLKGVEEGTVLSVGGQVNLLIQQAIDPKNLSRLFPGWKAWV
Sequence of ATM (phospho-ATM Ser1981) in SN38 treated HT-29 cells (Q13315 whole entry, looked up): as above
Experimental for PI3Kα (p110α/p85a): Assay c): PI3K Biochemical Potency
(§1) 2.5 μl of kinase solution was added to each well of the 384-well assay plate, which contains 2.5 μl of compounds with serially diluted concentration. 2× substrate solution was prepared with PIP2 substrate and ATP in 1× kinase reaction buffer at 2-fold of the final concentration of each reagent in the assay. 5 μl of substrate solution was added to each well of the assay plate to start reaction. The assay plate was incubated at room temperature for 1 hour. 5 μl reaction mix was transferred to a new 384 well plate. 5 μl of ADP-Glo reagent (Promega, Cat. No. v9102/3) was added to each well of the new assay plate to stop the reaction. The plate was shaken slowly and equilibrated for 40 minutes. 10 μl kinase detection reagents were added to each well, which was equilibrated for 60 minutes before read on a plate reader (Envision) for luminescence.
Experimental for PIK3Cβ (p110β): Assay c): PI3K Biochemical Potency
as §1
Experimental for PIK3Cγ (pp110γ): Assay c): PI3K Biochemical Potency
as §1
Experimental for PIK3Cδ: Assay c): PI3K Biochemical Potency
as §1
Experimental for mTOR: Assay d): mTOR Biochemical Potency
Solution of mTOR enzymes (Millipore, Cat. No. 14-770) was prepared in 1× kinase buffer at 4-fold of the final concentration (final concentration: 6 nM) in the assay. 2.5 μl of kinase solution was added to each well of the 384-well assay plate, which contains 2.5 μl of compounds with serially diluted concentration. 2× substrate solution was prepared with ULight-4E-BP1 (Thr37/46) Peptide (PE, Cat. No. TRF0128-M) and ATP in 1× kinase reaction buffer at 2-fold of the final concentration of each reagent in the assay. 5 μl of substrate solution was added to each well of the assay plate to start reaction. The assay plate was incubated at room temperature for 30 minutes. Detection solution of kinase quench buffer (EDTA) and Eu-anti-phospho-4E-BP1 antibody (Thr37/46) (PE, Cat. No. TRF0216-M) were prepared at 2-fold the desired final concentrations of each reagent in Lance detection buffer. 10 μl of detection solution buffer was added to each well of the assay plate.

With `OCCn1cc(-c2cnc3nnn(Cc4ccc5ncccc5c4)c3n2)cn1` [Reference compound 5, PF-04217903], in [1], the clearance in humans was 6 mL/min/kg and the “clearance in humans corresponding to liver blood flow” value is approximately 30 % liver blood flow.
As for `OCCn1cc(-c2cnc3nnn(Cc4ccc5ncccc5c4)c3n2)cn1` [PF-04217903, 2-[4-[3-(quinolin-6-ylmethyl)triazolo[4,5-b]pyrazin-5-yl]pyrazol-1-yl]ethanol], the “AO substrate classification (reported)” value on aldehyde oxidase (AO) [2] was “weak AO substrate”.
With `CCN(C(C)=O)c1cccc(-c2ccnc3c(C#N)cnn23)c1` [Zaleplon, N-[3-(3-cyanopyrazolo[1,5-a]pyrimidin-7-yl)phenyl]-N-ethylacetamide], on aldehyde oxidase (AO) [2], the “AO substrate classification (reported)” value is listed as “strong AO substrate”.
`CO[C@H]1C[C@H](n2c(=O)n(C)c3nnc4ccc(-c5ccc([C@@H](C)OCCN6CCCC6)nc5)cc4c32)C1` [Example 162, 1-(trans-3-methoxycyclobutyl)-3-methyl-8-(6-((R)-1-(2-(pyrrolidin-1-yl)ethoxy)ethyl)pyridin-3-yl)-1,3-dihydro-2H-imidazo[4,5-c]cinnolin-2-one]: the IC50 was more than 10 µM on DNA-PK; 0.007 µM at ATM; more than 10 µM against ATR; more than 10 µM on PIK3Cδ; more than 10 µM on PIK3Cγ (pp110γ); more than 10 µM on PIK3Cβ (p110β). Moreover, the IC50 at mTOR is more than 10 µM; in [3], 0.0055 µM; at PI3Kα (p110α/p85a), more than 10 µM.
In the case of `CCN(C(C)=O)c1cccc(-c2ccnc3c(C#N)cnn23)c1` [Reference compound 4, Zaleplon], the microsomal CLint at aldehyde oxidase (AO) [4] (human, cytosol) was found to be 0.893 µL/min/mg. In data set [1], the clearance in humans is 16 mL/min/kg and the “clearance in humans corresponding to liver blood flow” value is on record as approximately 80 % liver blood flow.
Take `CC(C)n1c(=O)n(C)c2nnc3ccc(-c4ccc(COCCN5CCC(C)(C)CC5)nc4)cc3c21` [Example 31, 8-(6-((2-(4,4-dimethylpiperidin-1-yl)ethoxy)methyl)pyridin-3-yl)-1-isopropyl-3-methyl-1H-imidazo[4,5-c]cinnolin-2(3H)-one]: the IC50 at DNA-PK was more than 10 µM; at ATM it was 0.011 µM; against ATR, more than 10 µM; on PIK3Cδ it was more than 10 µM; in data set [5], 0.016 µM; at PIK3Cγ (pp110γ) it was more than 10 µM. The IC50 at PIK3Cβ (p110β) is more than 10 µM; at mTOR, more than 10 µM; in data set [3], 0.029 µM; on PI3Kα (p110α/p85a), more than 10 µM.
Take `COC1CCN(CCO[C@H](C)c2ccc(-c3ccc4nnc5c(c4c3)n(C(C)C)c(=O)n5C)cn2)CC1` [Example 56, (R)-1-isopropyl-8-(6-(1-(2-(4-methoxypiperidin-1-yl)ethoxy)ethyl)pyridin-3-yl)-3-methyl-1H-imidazo[4,5-c]cinnolin-2(3H)-one]: the IC50 was more than 10 µM on DNA-PK; 0.0032 µM at ATM; more than 10 µM on ATR; more than 10 µM on PIK3Cδ; more than 10 µM at PIK3Cγ (pp110γ); more than 10 µM on PIK3Cβ (p110β). The IC50 on mTOR and on PI3Kα (p110α/p85a) was more than 10 µM each time.
On to `CC(C)n1c(=O)n(C)c2cnc3cc(F)c(-c4ccc(OCCCN5CCCCC5)nc4)cc3c21` [AZD1390], for which the AO substrate classification entry on aldehyde oxidase (AO) [4] (human liver cytosol) is “strong AO substrate”.
